The results in this text go back to patent US11209732B2, “Near infrared absorbing composition, film, infrared cut filter, solid image pickup element, infrared absorber, and compound” (FUJIFILM Corporation, priority 2015, dated 2021).

The nature of data set [1]: Solubility of compound in solvents at 25° C. It counts as physicochemical. The following applies: for Solubility PGMEA: propylene glycol monomethyl ether acetate; for Solubility Cyclohexanone / Solubility in each of the solvents (in words): cyclohexanone; for Solubility in each of the solvents (in words): PGMEA; for Solubility Toluene / Solubility in each of the solvents (in words): toluene. As for the experimental part: The solubility of each of the compounds in each of solvents (cyclohexanone, propylene glycol monomethyl ether acetate (PGMEA), toluene) at 25° C. was evaluated based on the following criteria.
A: the solubility of the compound in the solvent at 25° C. was 2 mass % or higher

Data set [2] is described as follows: Absorption maximum of compound in chloroform solution. The following applies: absorbance at maximum 0.7 to 1.2. It counts as physicochemical. As for the experimental part:
The absorption maximum of the squarylium compound (1) is a value measured using a chloroform solution of the squarylium compound that is adjusted such that an absorbance at the absorption maximum is in a range of 0.7 to 1.2.
Each of the obtained compounds was dissolved in chloroform to prepare a solution having a concentration of 1 g/L. Next, the solution in which each of the compounds was dissolved was appropriately diluted such that an absorbance at an absorption maximum in an absorption spectrum thereof was in a range of 0.7 to 1.2, and the absorption maximum (λmax) thereof was measured using UV-1800 (manufactured by Shimadzu Corporation).

Regarding `CCCCCCCCc1ccc(N(c2ccc(CCCCCCCC)cc2)c2ccc(/C=C/c3ccc(C4=C([O-])/C(=c5\cc/c(=C\C=C6/C=CC(=[N+](c7ccc(CCCCCCCC)cc7)c7ccc(CCCCCCCC)cc7)S6)s5)C4=O)s3)s2)cc1` [Compound 4], in data set [1], the “Solubility Cyclohexanone” value is “A (the solubility of the compound in the solvent at 25 °C was 2 mass % or higher)”; the “Solubility PGMEA” value was “B (the solubility of the compound in the solvent at 25 °C was 1 mass % or higher and lower than 2 mass %)”; the “Solubility Toluene” value was “B (the solubility of the compound in the solvent at 25 °C was 1 mass % or higher and lower than 2 mass %)”. Also, the “Absorption Maximum (nm)” value in data set [2] was 860 nm.

As for `CCCCCCc1cc(-c2ccc(N(c3ccc(C)cc3)c3ccc(C)cc3)s2)sc1C1=C([O-])/C(=c2/s/c(=C3\C=CC(=[N+](c4ccc(C)cc4)c4ccc(C)cc4)S3)cc2CCCCCC)C1=O` [Compound 5], in data set [1], the “Solubility Cyclohexanone” value was “A (the solubility of the compound in the solvent at 25 °C was 2 mass % or higher)”; the “Solubility PGMEA” value is “B (the solubility of the compound in the solvent at 25 °C was 1 mass % or higher and lower than 2 mass %)”; the “Solubility Toluene” value was “A (the solubility of the compound in the solvent at 25 °C was 2 mass % or higher)”.

With `CCCCc1ccc(N(c2ccc(CCCC)cc2)c2ccc(C3=C([O-])/C(=C4\C=CC(=[N+](c5ccc(CCCC)cc5)c5ccc(CCCC)cc5)S4)C3=O)s2)cc1` [Compound R-3, reference compound], in data set [1], the “Solubility Cyclohexanone” value is “B (the solubility of the compound in the solvent at 25 °C was 1 mass % or higher and lower than 2 mass %)”; the “Solubility in each of the solvents (in words)” value was “insufficient”; the “Solubility PGMEA” value was “D (the solubility of the compound in the solvent at 25 °C was lower than 0.5 mass %)”; the “Solubility Toluene” value is “B (the solubility of the compound in the solvent at 25 °C was 1 mass % or higher and lower than 2 mass %)”. Also, in data set [2], the “Absorption Maximum (nm)” value came to 704 nm.

Regarding `CCCCCCCCCCCCN(c1ccccc1)c1ccc(C2=C([O-])/C(=C3C=C/C(=[N+](\CCCCCCCCCCCC)CCNS(=O)(=O)CCCC)C=C/3O)C2=O)s1` [Compound R-2, reference compound], in data set [1], the “Solubility Cyclohexanone” value was “A (the solubility of the compound in the solvent at 25 °C was 2 mass % or higher)”, the “Solubility PGMEA” value is “A (the solubility of the compound in the solvent at 25 °C was 2 mass % or higher)” and the “Solubility Toluene” value was “A (the solubility of the compound in the solvent at 25 °C was 2 mass % or higher)”. In data set [2], the “Absorption Maximum (nm)” value is reported as 653 nm.

For the molecule `CCCCCCCCc1ccc(N(c2ccc(CCCCCCCC)cc2)c2cc3sc(C4=C([O-])/C(=c5\cc6c(s5)=CC(=[N+](c5ccc(CCCCCCCC)cc5)c5ccc(CCCCCCCC)cc5)S6)C4=O)cc3s2)cc1` [Compound 2], in data set [1], the “Solubility Cyclohexanone” value was “A (the solubility of the compound in the solvent at 25 °C was 2 mass % or higher)”; the “Solubility PGMEA” value is “B (the solubility of the compound in the solvent at 25 °C was 1 mass % or higher and lower than 2 mass %)”; the “Solubility Toluene” value is “B (the solubility of the compound in the solvent at 25 °C was 1 mass % or higher and lower than 2 mass %)”. Further, in data set [2], the “Absorption Maximum (nm)” value is recorded as 770 nm.

Consider `O=C1C(c2sc(N(c3ccccc3)c3ccccc3)nc2-c2ccccc2)=C([O-])/C1=C1/SC(=[N+](c2ccccc2)c2ccccc2)N=C1c1ccccc1` [Compound R-1, reference compound], for which, in data set [1], the “Solubility Cyclohexanone” value was “C (the solubility of the compound in the solvent at 25 °C was 0.5 mass % or higher and lower than 1 mass %)”; the “Solubility in each of the solvents (in words)” value is on record as “insufficient”; the “Solubility PGMEA” value is “D (the solubility of the compound in the solvent at 25 °C was lower than 0.5 mass %)”; the “Solubility Toluene” value is “C (the solubility of the compound in the solvent at 25 °C was 0.5 mass % or higher and lower than 1 mass %)”. For the same molecule, in data set [2], the “Absorption Maximum (nm)” value is 687 nm.

On to `CCCCCCC1=CC(=[N+](c2ccc3ccccc3c2)c2ccc3ccccc3c2)S/C1=C1\C(=O)C(c2sc(N(c3ccc4ccccc4c3)c3ccc4ccccc4c3)cc2CCCCCC)=C1[O-]` [Compound 1], for which, in data set [1], the “Solubility Cyclohexanone” value is “A (the solubility of the compound in the solvent at 25 °C was 2 mass % or higher)”; the “Solubility PGMEA” value is “B (the solubility of the compound in the solvent at 25 °C was 1 mass % or higher and lower than 2 mass %)”; the “Solubility Toluene” value is “A (the solubility of the compound in the solvent at 25 °C was 2 mass % or higher)”. Further, in data set [2], the “Absorption Maximum (nm)” value was 719 nm.
